Paper PMC5838524 (Molecular Informatics, 2018)

Tests used:
Experiment in all cases: Gal4 hybrid reporter gene assay
Assay type in all cases: cell-based
Conditions in all cases: agonist mode; printed as 'inactive' (no significant transactivation at 30 μM)
PPARα = target: T1, PPARα (Homo sapiens, UniProt Q07869)
T1 sequence (Q07869 167-468 limits assumed): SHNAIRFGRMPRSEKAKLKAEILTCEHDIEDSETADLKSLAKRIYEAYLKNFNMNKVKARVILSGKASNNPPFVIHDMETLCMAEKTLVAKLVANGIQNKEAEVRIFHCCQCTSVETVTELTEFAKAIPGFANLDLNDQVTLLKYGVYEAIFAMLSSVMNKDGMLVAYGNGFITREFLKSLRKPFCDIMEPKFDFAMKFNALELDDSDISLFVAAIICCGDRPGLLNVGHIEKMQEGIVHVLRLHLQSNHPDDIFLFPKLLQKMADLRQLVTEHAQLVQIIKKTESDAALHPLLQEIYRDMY

PPARδ = target: T2, PPARδ (Homo sapiens, UniProt Q03181)
T2 sequence (Q03181 139-441 limits assumed): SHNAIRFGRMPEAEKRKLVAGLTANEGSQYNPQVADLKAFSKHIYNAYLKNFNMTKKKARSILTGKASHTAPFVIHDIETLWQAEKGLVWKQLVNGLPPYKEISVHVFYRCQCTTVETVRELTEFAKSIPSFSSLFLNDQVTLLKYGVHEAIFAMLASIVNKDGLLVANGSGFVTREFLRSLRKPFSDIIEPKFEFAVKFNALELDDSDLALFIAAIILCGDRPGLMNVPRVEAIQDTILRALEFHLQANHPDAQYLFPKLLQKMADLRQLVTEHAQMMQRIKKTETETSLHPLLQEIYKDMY

RXRα = target: T3, RXRα (Homo sapiens, UniProt P19793)
T3 sequence (P19793 225-462 limits assumed): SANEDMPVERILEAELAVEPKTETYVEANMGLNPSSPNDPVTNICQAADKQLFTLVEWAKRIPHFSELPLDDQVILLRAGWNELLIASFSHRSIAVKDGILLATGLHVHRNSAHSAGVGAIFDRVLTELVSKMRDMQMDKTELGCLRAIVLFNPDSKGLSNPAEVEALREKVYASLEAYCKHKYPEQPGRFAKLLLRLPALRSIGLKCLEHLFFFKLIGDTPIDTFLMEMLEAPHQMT

RXRβ = target: T4, RXRβ (Homo sapiens, UniProt P28702)
T4 sequence (P28702 296-533 limits assumed): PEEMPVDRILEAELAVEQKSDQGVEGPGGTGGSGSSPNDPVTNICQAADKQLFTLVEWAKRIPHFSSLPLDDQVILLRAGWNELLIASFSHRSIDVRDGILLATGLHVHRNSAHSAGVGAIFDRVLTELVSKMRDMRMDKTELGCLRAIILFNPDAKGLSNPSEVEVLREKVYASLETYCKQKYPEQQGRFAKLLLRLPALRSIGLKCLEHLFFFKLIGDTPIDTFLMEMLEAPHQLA

RXRγ = target: T5, RXRγ (Homo sapiens, UniProt P48443)
T5 sequence (P48443 231-459 limits assumed): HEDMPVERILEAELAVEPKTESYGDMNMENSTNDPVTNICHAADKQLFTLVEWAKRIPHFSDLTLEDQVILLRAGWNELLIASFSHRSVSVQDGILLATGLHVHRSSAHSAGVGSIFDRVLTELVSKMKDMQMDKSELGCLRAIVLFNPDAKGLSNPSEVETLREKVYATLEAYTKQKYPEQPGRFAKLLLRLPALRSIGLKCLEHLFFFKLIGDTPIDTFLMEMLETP

EC50 (PPARα) [µM] | EC50 (PPARδ) [µM] | EC50 (RXRα) [µM] | EC50 (RXRβ) [µM] | EC50 (RXRγ) [µM] | Structure (SMILES)
> 30 | > 30 |  |  |  | O=C(O)c1cccc(NC(=O)c2ccc(-c3ccccc3)s2)c1 [compound 1, design 1]
 | > 30 | > 30 | > 30 | > 30 | O=C(O)c1ccc(-c2cccc(O)c2)cc1OC1CCCC1 [compound 3, design 3]
> 30 | > 30 |  |  |  | O=C(O)c1ccc(-c2cc(F)ccc2OCc2ccc(F)cc2)c(C(F)(F)F)c1 [compound 2, design 2]
